# Measured values published in PubChem BioAssay (NCI).
#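 Grown in 96-well plates, cells were treated for 48 hours with each compound at five concentrations. Insufficient inhibition: endpoint recorded as highest concentration tested. TGI: total growth inhibition.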
# Tested on: IGROV1 ovarian
# Assay: growth of human tumour cells (NCI), 48 h
row,SMILES,TGI
1,O=C(O)c1c[nH]c2c(Sc3ccccc3)nccc2c1=O,> 100 µM
2,CCOC(=O)c1cc(Sc2ccc(N)c(C(=O)OCC)c2)ccc1N,> 100 µM
3,NC1CC(=O)c2cc(Cl)sc21 (centres undefined),> 100 µM
4,O=C(O)C1C(C(=O)O)C2C(=O)C=CC1N2Cc1ccccc1 (centres undefined),27.1 µM

# Tested on: SNB-19 CNS
# Assay: growth of human tumour cells (NCI), 48 h
row,SMILES,TGI
1,O=C(O)c1c[nH]c2c(Sc3ccccc3)nccc2c1=O,> 100 µM
2,CCOC(=O)c1cc(Sc2ccc(N)c(C(=O)OCC)c2)ccc1N,> 100 µM
3,NC1CC(=O)c2cc(Cl)sc21 (centres undefined),> 100 µM
4,O=C(O)C1C(C(=O)O)C2C(=O)C=CC1N2Cc1ccccc1 (centres undefined),18.2 µM

# Tested on: HL-60(TB) leukemia
# Assay: growth of human tumour cells (NCI), 48 h
row,SMILES,TGI
1,O=C(O)c1c[nH]c2c(Sc3ccccc3)nccc2c1=O,> 100 µM
2,CCOC(=O)c1cc(Sc2ccc(N)c(C(=O)OCC)c2)ccc1N,> 100 µM
3,NC1CC(=O)c2cc(Cl)sc21 (centres undefined),> 100 µM
4,O=C(O)C1C(C(=O)O)C2C(=O)C=CC1N2Cc1ccccc1 (centres undefined),4.31 µM

# Tested on: K-562 leukemia
# Assay: growth of human tumour cells (NCI), 48 h
row,SMILES,TGI
1,CCOC(=O)c1cc(Sc2ccc(N)c(C(=O)OCC)c2)ccc1N,> 100 µM
2,NC1CC(=O)c2cc(Cl)sc21 (centres undefined),> 100 µM
3,O=C(O)C1C(C(=O)O)C2C(=O)C=CC1N2Cc1ccccc1 (centres undefined),> 100 µM

# Tested on: U251 CNS
# Assay: growth of human tumour cells (NCI), 48 h
row,SMILES,TGI
1,O=C(O)c1c[nH]c2c(Sc3ccccc3)nccc2c1=O,> 100 µM
2,CCOC(=O)c1cc(Sc2ccc(N)c(C(=O)OCC)c2)ccc1N,> 100 µM
3,NC1CC(=O)c2cc(Cl)sc21 (centres undefined),> 100 µM
4,O=C(O)C1C(C(=O)O)C2C(=O)C=CC1N2Cc1ccccc1 (centres undefined),14.2 µM

# Tested on: SK-MEL-2 melanoma
# Assay: growth of human tumour cells (NCI), 48 h
row,SMILES,TGI
1,O=C(O)c1c[nH]c2c(Sc3ccccc3)nccc2c1=O,> 100 µM
2,CCOC(=O)c1cc(Sc2ccc(N)c(C(=O)OCC)c2)ccc1N,> 100 µM
3,NC1CC(=O)c2cc(Cl)sc21 (centres undefined),> 100 µM
4,O=C(O)C1C(C(=O)O)C2C(=O)C=CC1N2Cc1ccccc1 (centres undefined),24.1 µM

# Tested on: OVCAR-4 ovarian
# Assay: growth of human tumour cells (NCI), 48 h
row,SMILES,TGI
1,O=C(O)c1c[nH]c2c(Sc3ccccc3)nccc2c1=O,> 100 µM
2,CCOC(=O)c1cc(Sc2ccc(N)c(C(=O)OCC)c2)ccc1N,> 100 µM
3,NC1CC(=O)c2cc(Cl)sc21 (centres undefined),> 100 µM
4,O=C(O)C1C(C(=O)O)C2C(=O)C=CC1N2Cc1ccccc1 (centres undefined),16.3 µM

# Tested on: LOX IMVI melanoma
# Assay: growth of human tumour cells (NCI), 48 h
row,SMILES,TGI
1,O=C(O)c1c[nH]c2c(Sc3ccccc3)nccc2c1=O,> 100 µM
2,NC1CC(=O)c2cc(Cl)sc21 (centres undefined),> 100 µM
3,O=C(O)C1C(C(=O)O)C2C(=O)C=CC1N2Cc1ccccc1 (centres undefined),19.1 µM

# Tested on: MDA-MB-435
# Assay: growth of human tumour cells (NCI), 48 h
row,SMILES,TGI
1,O=C(O)c1c[nH]c2c(Sc3ccccc3)nccc2c1=O,> 100 µM
2,NC1CC(=O)c2cc(Cl)sc21 (centres undefined),> 100 µM
3,O=C(O)C1C(C(=O)O)C2C(=O)C=CC1N2Cc1ccccc1 (centres undefined),13.4 µM

# Tested on: HCT-15 colon
# Assay: growth of human tumour cells (NCI), 48 h
row,SMILES,TGI
1,O=C(O)c1c[nH]c2c(Sc3ccccc3)nccc2c1=O,> 100 µM
2,CCOC(=O)c1cc(Sc2ccc(N)c(C(=O)OCC)c2)ccc1N,> 100 µM
3,NC1CC(=O)c2cc(Cl)sc21 (centres undefined),> 100 µM
4,O=C(O)C1C(C(=O)O)C2C(=O)C=CC1N2Cc1ccccc1 (centres undefined),10.3 µM

# Tested on: A549 NSCLC
# Assay: growth of human tumour cells (NCI), 48 h
row,SMILES,TGI
1,O=C(O)c1c[nH]c2c(Sc3ccccc3)nccc2c1=O,> 100 µM
2,CCOC(=O)c1cc(Sc2ccc(N)c(C(=O)OCC)c2)ccc1N,> 100 µM
3,NC1CC(=O)c2cc(Cl)sc21 (centres undefined),> 100 µM
4,O=C(O)C1C(C(=O)O)C2C(=O)C=CC1N2Cc1ccccc1 (centres undefined),22.4 µM

# Tested on: A498 renal
# Assay: growth of human tumour cells (NCI), 48 h
row,SMILES,TGI
1,O=C(O)c1c[nH]c2c(Sc3ccccc3)nccc2c1=O,> 100 µM
2,CCOC(=O)c1cc(Sc2ccc(N)c(C(=O)OCC)c2)ccc1N,72.1 µM
3,O=C(O)C1C(C(=O)O)C2C(=O)C=CC1N2Cc1ccccc1 (centres undefined),42.6 µM

# Tested on: MOLT-4 leukemia
# Assay: growth of human tumour cells (NCI), 48 h
row,SMILES,TGI
1,O=C(O)c1c[nH]c2c(Sc3ccccc3)nccc2c1=O,> 100 µM
2,CCOC(=O)c1cc(Sc2ccc(N)c(C(=O)OCC)c2)ccc1N,> 100 µM
3,O=C(O)C1C(C(=O)O)C2C(=O)C=CC1N2Cc1ccccc1 (centres undefined),9.18 µM

# Tested on: 786-0 renal
# Assay: growth of human tumour cells (NCI), 48 h
row,SMILES,TGI
1,O=C(O)c1c[nH]c2c(Sc3ccccc3)nccc2c1=O,> 100 µM
2,CCOC(=O)c1cc(Sc2ccc(N)c(C(=O)OCC)c2)ccc1N,> 100 µM
3,NC1CC(=O)c2cc(Cl)sc21 (centres undefined),> 100 µM
4,O=C(O)C1C(C(=O)O)C2C(=O)C=CC1N2Cc1ccccc1 (centres undefined),11.7 µM

# Tested on: DU-145 prostate
# Assay: growth of human tumour cells (NCI), 48 h
row,SMILES,TGI
1,O=C(O)c1c[nH]c2c(Sc3ccccc3)nccc2c1=O,> 100 µM
2,CCOC(=O)c1cc(Sc2ccc(N)c(C(=O)OCC)c2)ccc1N,> 100 µM
3,NC1CC(=O)c2cc(Cl)sc21 (centres undefined),> 100 µM
4,O=C(O)C1C(C(=O)O)C2C(=O)C=CC1N2Cc1ccccc1 (centres undefined),6.17 µM

# Tested on: HCC-2998 colon
# Assay: growth of human tumour cells (NCI), 48 h
row,SMILES,TGI
1,O=C(O)C1C(C(=O)O)C2C(=O)C=CC1N2Cc1ccccc1 (centres undefined),7.71 µM

# Tested on: ACHN renal
# Assay: growth of human tumour cells (NCI), 48 h
row,SMILES,TGI
1,O=C(O)c1c[nH]c2c(Sc3ccccc3)nccc2c1=O,> 100 µM
2,CCOC(=O)c1cc(Sc2ccc(N)c(C(=O)OCC)c2)ccc1N,> 100 µM
3,NC1CC(=O)c2cc(Cl)sc21 (centres undefined),> 100 µM
4,O=C(O)C1C(C(=O)O)C2C(=O)C=CC1N2Cc1ccccc1 (centres undefined),14.2 µM

# Tested on: MDA-N
# Assay: growth of human tumour cells (NCI), 48 h
row,SMILES,TGI
1,O=C(O)c1c[nH]c2c(Sc3ccccc3)nccc2c1=O,> 100 µM
2,CCOC(=O)c1cc(Sc2ccc(N)c(C(=O)OCC)c2)ccc1N,> 100 µM
3,NC1CC(=O)c2cc(Cl)sc21 (centres undefined),> 100 µM
4,O=C(O)C1C(C(=O)O)C2C(=O)C=CC1N2Cc1ccccc1 (centres undefined),11.4 µM

# Tested on: SF-268 CNS
# Assay: growth of human tumour cells (NCI), 48 h
row,SMILES,TGI
1,O=C(O)c1c[nH]c2c(Sc3ccccc3)nccc2c1=O,> 100 µM
2,CCOC(=O)c1cc(Sc2ccc(N)c(C(=O)OCC)c2)ccc1N,> 100 µM
3,NC1CC(=O)c2cc(Cl)sc21 (centres undefined),> 100 µM
4,O=C(O)C1C(C(=O)O)C2C(=O)C=CC1N2Cc1ccccc1 (centres undefined),11.3 µM

# Tested on: UACC-62 melanoma
# Assay: growth of human tumour cells (NCI), 48 h
row,SMILES,TGI
1,O=C(O)c1c[nH]c2c(Sc3ccccc3)nccc2c1=O,> 100 µM
2,CCOC(=O)c1cc(Sc2ccc(N)c(C(=O)OCC)c2)ccc1N,> 100 µM
3,NC1CC(=O)c2cc(Cl)sc21 (centres undefined),> 100 µM
4,O=C(O)C1C(C(=O)O)C2C(=O)C=CC1N2Cc1ccccc1 (centres undefined),21.3 µM

# Tested on: UO-31 renal
# Assay: growth of human tumour cells (NCI), 48 h
row,SMILES,TGI
1,O=C(O)c1c[nH]c2c(Sc3ccccc3)nccc2c1=O,> 100 µM
2,NC1CC(=O)c2cc(Cl)sc21 (centres undefined),> 100 µM
3,O=C(O)C1C(C(=O)O)C2C(=O)C=CC1N2Cc1ccccc1 (centres undefined),3.72 µM

# Tested on: EKVX NSCLC
# Assay: growth of human tumour cells (NCI), 48 h
row,SMILES,TGI
1,O=C(O)c1c[nH]c2c(Sc3ccccc3)nccc2c1=O,> 100 µM
2,CCOC(=O)c1cc(Sc2ccc(N)c(C(=O)OCC)c2)ccc1N,> 100 µM
3,NC1CC(=O)c2cc(Cl)sc21 (centres undefined),> 100 µM
4,O=C(O)C1C(C(=O)O)C2C(=O)C=CC1N2Cc1ccccc1 (centres undefined),16.3 µM

# Tested on: HOP-62 NSCLC
# Assay: growth of human tumour cells (NCI), 48 h
row,SMILES,TGI
1,O=C(O)c1c[nH]c2c(Sc3ccccc3)nccc2c1=O,> 100 µM
2,CCOC(=O)c1cc(Sc2ccc(N)c(C(=O)OCC)c2)ccc1N,65.9 µM
3,NC1CC(=O)c2cc(Cl)sc21 (centres undefined),> 100 µM
4,O=C(O)C1C(C(=O)O)C2C(=O)C=CC1N2Cc1ccccc1 (centres undefined),10.5 µM

# Tested on: SW-620 colon
# Assay: growth of human tumour cells (NCI), 48 h
row,SMILES,TGI
1,O=C(O)c1c[nH]c2c(Sc3ccccc3)nccc2c1=O,> 100 µM
2,CCOC(=O)c1cc(Sc2ccc(N)c(C(=O)OCC)c2)ccc1N,> 100 µM
3,NC1CC(=O)c2cc(Cl)sc21 (centres undefined),> 100 µM
4,O=C(O)C1C(C(=O)O)C2C(=O)C=CC1N2Cc1ccccc1 (centres undefined),11.6 µM

# Tested on: SNB-75 CNS
# Assay: growth of human tumour cells (NCI), 48 h
row,SMILES,TGI
1,O=C(O)c1c[nH]c2c(Sc3ccccc3)nccc2c1=O,> 100 µM
2,CCOC(=O)c1cc(Sc2ccc(N)c(C(=O)OCC)c2)ccc1N,> 100 µM
3,NC1CC(=O)c2cc(Cl)sc21 (centres undefined),> 100 µM
4,O=C(O)C1C(C(=O)O)C2C(=O)C=CC1N2Cc1ccccc1 (centres undefined),6.97 µM

# Tested on: RXF 393 renal
# Assay: growth of human tumour cells (NCI), 48 h
row,SMILES,TGI
1,CCOC(=O)c1cc(Sc2ccc(N)c(C(=O)OCC)c2)ccc1N,> 100 µM
2,NC1CC(=O)c2cc(Cl)sc21 (centres undefined),> 100 µM
3,O=C(O)C1C(C(=O)O)C2C(=O)C=CC1N2Cc1ccccc1 (centres undefined),7.51 µM

# Tested on: SF-539 CNS
# Assay: growth of human tumour cells (NCI), 48 h
row,SMILES,TGI
1,O=C(O)c1c[nH]c2c(Sc3ccccc3)nccc2c1=O,> 100 µM
2,CCOC(=O)c1cc(Sc2ccc(N)c(C(=O)OCC)c2)ccc1N,> 100 µM
3,NC1CC(=O)c2cc(Cl)sc21 (centres undefined),> 100 µM
4,O=C(O)C1C(C(=O)O)C2C(=O)C=CC1N2Cc1ccccc1 (centres undefined),7.56 µM

# Tested on: HOP-92 NSCLC
# Assay: growth of human tumour cells (NCI), 48 h
row,SMILES,TGI
1,O=C(O)c1c[nH]c2c(Sc3ccccc3)nccc2c1=O,> 100 µM
2,CCOC(=O)c1cc(Sc2ccc(N)c(C(=O)OCC)c2)ccc1N,> 100 µM
3,NC1CC(=O)c2cc(Cl)sc21 (centres undefined),> 100 µM
4,O=C(O)C1C(C(=O)O)C2C(=O)C=CC1N2Cc1ccccc1 (centres undefined),24.6 µM

# Tested on: HT29 colon
# Assay: growth of human tumour cells (NCI), 48 h
row,SMILES,TGI
1,O=C(O)c1c[nH]c2c(Sc3ccccc3)nccc2c1=O,> 100 µM
2,CCOC(=O)c1cc(Sc2ccc(N)c(C(=O)OCC)c2)ccc1N,> 100 µM
3,NC1CC(=O)c2cc(Cl)sc21 (centres undefined),> 100 µM
4,O=C(O)C1C(C(=O)O)C2C(=O)C=CC1N2Cc1ccccc1 (centres undefined),12.6 µM

# Tested on: KM12 colon
# Assay: growth of human tumour cells (NCI), 48 h
row,SMILES,TGI
1,O=C(O)c1c[nH]c2c(Sc3ccccc3)nccc2c1=O,> 100 µM
2,CCOC(=O)c1cc(Sc2ccc(N)c(C(=O)OCC)c2)ccc1N,> 100 µM
3,NC1CC(=O)c2cc(Cl)sc21 (centres undefined),> 100 µM
